Data on 21 compounds can be found in patent publication US20260200925A1, “SMALL MOLECULE INHIBITORS OF KRAS MUTATED PROTEINS” (MERCK SHARP & DOHME LLC, priority 2021, published 2026).

Counter-ions that a name gives are not always drawn.

Usually IC50 stands for the point on the concentration scale where inhibition reaches its midpoint.

The test system of assay [1] is AsPC-1 cells containing homozygous KRAS-G12D activating mutation (p-ERK). The following applies: Homo sapiens, ASPC1, 2 h, read-out: KRAS G12D ASPC-1 IC50 (nM).
Method: Procedure for Cellular Phospho-ERK Assay, G12D
AsPC-1 cells (ATCC® CRL-1682™), containing homozygous KRAS-G12D activating mutation, were cultured in T150 flask in growth medium (RPMI medium 1640-GlutaMAX™—I (ThermoFisher Scientific 61870) containing 10% fetal bovine serum (ThermoFisher Scientific 10091148)). The cells were harvested in growth medium after TrypLE (ThermoFisher scientific 12604021) digestion and were seeded in a 384-well collagen coated cell culture plate (Corning 356702) at a density of 15,000 cells/well, and incubated at 37° C., 5% CO2 overnight. […] RPMI medium 1640-GlutaMAX™—I was added to the intermediate plate and the contents of the intermediate plate were then transferred to the 384-well collagen coated cell culture plate, which was incubated at 37° C., 5% CO2 for 2 hours. After removal of medium from the collagen coated cell culture plate, cells were lysed in lysis buffer from Alpha SureFire® Ultra™ Multiplex p-ERK and total ERK assay kit (PerkinElmer MPSU-PTERK) containing Halt™ Protease and Phosphatase inhibitor cocktail (ThermoFisher Scientific 78446) at room temperature with constant shaking at 300 rpm for 30 minutes. The cell lysates were then transferred to an OptiPlate-384 plate (PerkinElmer 6005620), and the phosphorylation of ERK (p-ERK) and total ERK levels were detected by Alpha SureFire® Ultra™ Multiplex p-ERK kit and total ERK assay kit (PerkinElmer MPSU-PTERK) following the manufacturer's protocol. Assay plates were read on a EnVision Multimode Plate Reader (PerkinElmer), and the ratio of p-ERK vs. total ERK in each well was used as the final readout. Dose response curves were analyzed using a 4-parameter logistic model to calculate IC50 values using Spotfire software.
Assay [2] relates to NCI-H358 cells containing homozygous KRAS-G12C activating mutation (p-ERK). To be noted: Homo sapiens, NCI-H358, 2 h, read-out: G12C H358 IC50 (nM).
Method: Procedure for Cellular Phospho-ERK Assay, G12C
NCI-H358 cells (ATCC® CRL-5807™), containing homozygous KRAS-G12C activating mutation, were cultured in T150 flask in growth medium (RPMI medium 1640-GlutaMAX™—I (ThermoFisher Scientific 61870) containing 10% fetal bovine serum (ThermoFisher Scientific 10091148)). The cells were harvested in growth medium after TrypLE (ThermoFisher scientific 12604021) digestion and were seeded in a 384-well collagen coated cell culture plate (Corning 356702) at a density of 15,000 cells/well, and incubated at 37° C., 5% CO2 overnight. […] RPMI medium 1640-GlutaMAX™—I was added to the intermediate plate and the contents of the intermediate plate were then transferred to the 384-well collagen coated cell culture plate, which was incubated at 37° C., 5% CO2 for 2 hours. After removal of medium from the collagen coated cell culture plate, cells were lysed in lysis buffer from Alpha SureFire® Ultra™ Multiplex p-ERK and total ERK assay kit (PerkinElmer MPSU-PTERK) containing Halt™ Protease and Phosphatase inhibitor cocktail (ThermoFisher Scientific 78446) at room temperature with constant shaking at 300 rpm for 30 minutes. The cell lysates were then transferred to an OptiPlate-384 plate (PerkinElmer 6005620), and the phosphorylation of ERK (p-ERK) and total ERK levels were detected by Alpha SureFire® Ultra™ Multiplex p-ERK kit and total ERK assay kit (PerkinElmer MPSU-PTERK) following the manufacturer's protocol. Assay plates were read on an EnVision Multimode Plate Reader (PerkinElmer), and the ratio of p-ERK vs. total ERK in each well was used as the final readout. Dose response curves were analyzed using a 4-parameter logistic model to calculate IC50 values using Spotfire software.
Another assay deals with G13D (Homo sapiens, UniProt P01116, G13D). In words: Guanine nucleotide exchange (GNE) assay, G13D. In kind it is biochemical.
Assay [3] deals with Recombinant KRAS-G12V (SEQ ID NO: 3) (Homo sapiens, UniProt P01116, G12V). The experiment in a line: SOS-catalyzed guanine nucleotide exchange (GNE) assay, KRAS-G12V.
Method: (§1) Specifically, the SOS-catalyzed nucleotide exchange assay utilizes a preformed time-resolved fluorescence resonance energy transfer (TR-FRET) complex containing a specific biotinylated RAS protein (KRAS-G12C/V/D, HRAS, NRAS; described above) with BODIPY-GDP, and Terbium-streptavidin. Test compounds are preincubated with this complex for 60 minutes.
(§2) To assemble the preformed TR-FRET complexes, each biotinylated RAS protein is diluted to 2 μM in an EDTA Buffer (20 mM HEPES, 50 mM sodium chloride, 10 mM EDTA, and 0.01% Tween) and incubated at room temperature for one hour. This mixture is then further diluted to 90 nM in an Assay Buffer (20 mM HEPES, 150 mM sodium chloride, 10 mM magnesium chloride, and 0.005% Tween) containing 15 nM of Terbium-Streptavidin (Invitrogen, catalog #PV3577) and 900 nM of BODIPY-GDP (Invitrogen, catalog #G22360) and incubated at room temperature for six hours. It should be noted that this preformed TR-FRET complex for each of the RAS proteins was made ahead of time, aliquoted and stored at −80° C. until the day of the experiment.
(§3) Once titrations are made, 10 nL of the diluted compounds is acoustically dispensed into a 384-well assay plate (Corning, catalog #3820) using an Echo 550 (Labcyte). Each well of the assay plate subsequently receives 3 μL of a specific 3× RAS preformed TR-FRET complex and 3 μL of Assay Buffer and is incubated at room temperature for 60 minutes (preincubation time). […] The final reaction in each well of 9 μL consists of 3 mM GTP, and the specific RAS and SOS proteins in the following concentrations: KRAS-G12C/SOS=3 nM/40 nM, KRAS-G12D/SOS=1 nM/40 nM, KRAS-G12V/SOS=1.25 nM/160 nM, HRAS/SOS=1.25 nM/40 nM, and NRAS/SOS=1.25 nM/40 nM.
(§4) The TR-FRET signal is measured on an Envision (PerkinElmer) plate reader: Excitation filter=340 nm; emission 1=495 nm; emission 2=520 nm; dichroic mirror=D400/D505; delay time=100 ms. The signal of each well is determined as the ratio of the emission at 520 nm to that at 495 nm. […] The apparent effect as a function of compound concentration is fit to a four-parameter logistic equation to calculate IC50 values using Spotfire software.
Assay [4] concerns the target Recombinant KRAS-G12D (SEQ ID NO: 2) (Homo sapiens, UniProt P01116, G12D). The experiment in a line: SOS-catalyzed guanine nucleotide exchange (GNE) assay, KRAS-G12D.
Method: as §1, §2, §3, §4

Sequence of Recombinant KRAS-G12V (SEQ ID NO: 3) (P01116 with tags, fused parts or gaps isoform P01116-2 G12V): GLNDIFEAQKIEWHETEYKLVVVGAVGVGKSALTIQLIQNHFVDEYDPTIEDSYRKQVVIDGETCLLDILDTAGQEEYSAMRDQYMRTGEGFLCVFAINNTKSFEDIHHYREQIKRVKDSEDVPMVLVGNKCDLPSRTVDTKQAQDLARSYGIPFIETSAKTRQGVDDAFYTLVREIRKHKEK
Sequence of G13D (P01116 1-188 isoform P01116-2 G13D): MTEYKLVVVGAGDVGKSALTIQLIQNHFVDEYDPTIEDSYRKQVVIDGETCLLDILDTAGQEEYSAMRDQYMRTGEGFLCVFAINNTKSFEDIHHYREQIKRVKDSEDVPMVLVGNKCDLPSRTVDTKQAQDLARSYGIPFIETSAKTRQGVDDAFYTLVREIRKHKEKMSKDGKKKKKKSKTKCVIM
Sequence of Recombinant KRAS-G12D (SEQ ID NO: 2) (P01116 with tags, fused parts or gaps isoform P01116-2 G12D): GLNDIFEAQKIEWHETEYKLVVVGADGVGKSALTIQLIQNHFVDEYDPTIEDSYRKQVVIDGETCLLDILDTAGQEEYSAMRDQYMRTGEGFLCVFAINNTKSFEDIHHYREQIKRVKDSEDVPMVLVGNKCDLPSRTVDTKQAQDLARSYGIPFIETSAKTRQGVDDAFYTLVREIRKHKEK
Method for G13D: as §4

For the compound `C#Cc1cccc2cc(O)cc(-c3ccc4c(N5CCC[C@@](C)(O)C5)nc(OCC5(CN(C)C)CC5)nc4c3F)c12` [Ex-16, (R)-1-(2-((1-((dimethylamino)methyl)cyclopropyl)methoxy)-7-(8-ethynyl-3-hydroxynaphthalen-1-yl)-8-fluoroquinazolin-4-yl)-3-methylpiperidin-3-ol], the IC50 stood at 352 nM in assay [1] and 123 nM in assay [2].
With `C#Cc1cccc2cc(O)cc(-c3c(F)cc4c(N5CCC[C@@](C)(O)C5)nc(OCC5(CN6CCC(OC)CC6)CC5)nc4c3F)c12` [Ex-7, (3R)-1-(7-(8-ethynyl-3-hydroxvnaphthalen-1-yl)-6,8-difluoro-2-((1-((4-methoxypiperidin-1-yl)methyl)cyclopropyl)methoxy)quinazolin-4-yl)-3-methylpiperidin-3-ol], the IC50 in assay [1] was determined as 95 nM.
As for `C#Cc1cccc2cc(O)cc(-c3cnc4c(N5CCC[C@@](C)(O)C5)nc(OCC5(CN(C)C)CC5)nc4c3)c12` [Ex-19, (R)-1-(2-((1-((dimethylamino)methyl)cyclopropyl)methoxy)-7-(8-ethynyl-3-hydroxynaphthalen-1-yl)pyrido[3,2-d]pyrimidine-4-yl)-3-methylpiperidin-3-ol], the IC50 on G13D was 129 nM; in assay [1], 3340 nM; in assay [3] it was 47 nM; in assay [4], 91 nM.
On to `CC1CN(c2nc(OC[C@@]34CCCN3C[C@H](F)C4)nc3c(F)c(-c4cc(O)cc5cccc(Cl)c45)c(F)cc23)CC(C)(O)C1` (single isomer, unassigned) [Ex-33], for which the IC50 against G13D was 86 nM; in assay [3], 143 nM; in assay [4] it was 163 nM.
Regarding `Nc1nc2c(-c3c(Cl)cc4c(N5CCCC(O)CC5)nc(OC[C@@]56CCCN5C[C@H](F)C6)nc4c3F)c(F)cc(F)c2o1` (stereo partly drawn) [Ex-25, 1-(7-(2-amino-5,7-difluorobenzo[d]oxazol-4-yl)-6-chloro-8-fluoro-2-(((2R,7aS)-2-fluorotetrahydro-1H-pyrrolizin-7a(5H)-yl)methoxy)quinazolin-4-yl)azepan-4-ol], the IC50 in assay [1] worked out at 1400 nM; in assay [2], 611 nM.
The matching figures for `C#Cc1cccc2cc(O)cc(-c3c(F)cc4c(N5CCC[C@@](C)(O)C5)nc(OCC5(CN6CC[C@@H](F)C6)CC5)nc4c3F)c12` [Ex-12, (3R)-1-(7-(8-ethyny1-3-hydroxynaphthalen-1-yl)-6,8-difluoro-2-((1-(((R)-3-fluoropyrrolidin-1-yl)methyl)cyclopropyl)meth-oxy)quinazolin-4-yl)-3-methylpiperidin-3-ol]: 86 nM and 41 nM.
The matching figures for `CN1CCC[C@H]1COc1nc(N2CCC[C@@](C)(O)C2)c2cc(F)c(-c3cc(O)cc4cccc(Cl)c34)c(F)c2n1` [Ex-49, (3R)-1-(7-(8-chloro-3-hydroxynaphthalen-1-yl)-6,8-difluoro-2-(((S)-1-methylpyrrolidin-2-yl)methoxy)quinazolin-4-yl)-3-methylpiperidin-3-ol trifluoracetate salt]: 690 nM and 427 nM.
Turning to `CN(C)CC1(COc2nc(N3CCC[C@@](C)(O)C3)c3cnc(-c4cc(O)cc5cccc(Cl)c45)c(F)c3n2)CC1` [Ex-20, (R)-1-(7-(8-chloro-3-hydroxynaphthalen-1-yl)-2-((1-((dimethylamino)methyl)cyclopropyl)methoxy)-8-fluoropyrido[4,3-d]pyrimidin-4-yl)-3-methylpiperidin-3-ol], the IC50 against G13D stood at 6 nM; in assay [1], 1180 nM; in assay [3], 6 nM; in assay [4], 4 nM.
For `C[C@@]1(O)COCCN(c2nc(OC[C@@]34CCCN3C[C@H](F)C4)nc3c(F)c(-c4cc(O)cc5cccc(Cl)c45)c(F)cc23)C1` [Ex-37, (6S)-4-(7-(8-chloro-3-hydroxynaphthalen-1-yl)-6,8-difluoro-2-(((2R,7aS)-2-fluorotetrahydro-1H-pyrrolizin-7a(5H)-yl)methoxy)quinazolin-4-yl)-6-methyl-1,4-oxazepan-6-ol], the half-maximal inhibitory concentration (IC50) in assay [1] is 151 nM; in assay [2] it was 48 nM.
Take `CN(C)C[C@@]1(COc2nc(N3CCC[C@@](C)(O)C3)c3cc(F)c(-c4cccc5ccc(F)c(Cl)c45)c(F)c3n2)CC1(F)F` [Ex-14, (3R)-1-(7-(8-chloro-7-fluoronaphthalen-1-yl)-2-(((R)-1-((dimethylamino)methyl)-2,2-difluorocyclopropyl)methoxy)-6,8-difluoroquinazolin-4-yl)-3-methylpiperidin-3-ol]: the IC50 against G13D was 5190 nM; in assay [3] it was 1230 nM; in assay [4], 1190 nM.
`Oc1cc(-c2c(F)cc3c(N4CCC[C@@H](O)C4)nc(OC[C@@]45CCCN4C[C@H](F)C5)nc3c2F)c2c(Cl)cccc2c1` [Ex-27, (3R)-1-(7-(8-chloro-3-hydroxynaphthalen-1-yl)-6,8-difluoro-2-(((2R,7aS)-2-fluorotetrahydro-1H-pyrrolizin-7a(5H)-yl)methoxy)quinazolin-4-yl)piperidin-3-ol]: in assay [1], the half-inhibitory concentration (IC50) was 3840 nM.
For `C[C@@]1(O)CCCN(c2nc(OC[C@]3(CO)CC3(F)F)nc3c(F)c(-c4cc(O)cc5cccc(Cl)c45)c(F)cc23)C1` [Ex-30, (3R)-1-(7-(8-chloro-3-hydroxynaphthalen-1-yl)-2-(((R)-2,2-difluoro-1-(hydroxymethyl)cyclo-propyl)methoxy)-6,8-difluoroquinazolin-4-yl)-3-methylpiperidin-3-ol], the results for the IC50 in assay [1] and in assay [2] were 3150 nM and 512 nM, respectively.
For the compound `C#Cc1cccc2cc(O)cc(-c3ncc4c(N5CCC[C@@](C)(O)C5)nc(OCC5(CN(C)C)CC5)nc4c3F)c12` [Ex-21, (R)-1-(2-((1-((dimethylamino)methyl)cyclopropyl)methoxy)-7-(8-ethynyl-3-hydroxynaphthalen-1-yl)-8-fluoropyrido[4,3-d]pyrimidin-4-yl)-3-methylpiperidin-3-ol], the IC50 was determined as 1 nM against G13D, 329 nM in assay [1], 1 nM in assay [3] and 1 nM in assay [4].
In the case of `COC1CCN(CC2(COc3nc(N4CCC[C@@](C)(O)C4)c4cc(F)c(-c5cc(O)cc6cccc(Cl)c56)c(F)c4n3)CC2)CC1` [Ex-5, (3R)-1-(7-(8-chloro-3-hydroxnagphthalen-1-yl)-6,8-difluoro-2-((1-((4-methoxypiperidin-1-yl)methyl)cyclopropyl)methoxy)quinazolin-4-yl)-3-methylpiperidin-3-ol], the concentration for half-maximal inhibition (IC50) in assay [1] was 1150 nM.
Consider `C#Cc1cccc2cccc(-c3c(F)cc4c(N5CCC[C@](C)(O)C5)nc(OC[C@@]56CCCN5C[C@H](F)C6)nc4c3F)c12` (single isomer, unassigned) [Ex-46], for which the IC50 against G13D was found to be 291 nM; in assay [1], 4690 nM; in assay [3] it was 168 nM; in assay [4], 986 nM.
As for `C#Cc1cccc2cc(O)cc(-c3c(F)cc4c(N5CCC[C@@](C)(O)C5)nc(OC[C@]5(CO)CC5(F)F)nc4c3F)c12` [Ex-44, (3R)-1-(2-(((R)-2,2-difluoro-1-(hydroxy-methyl)cyclopropyl)methoxy)-7-(8-ethynyl-3-hydroxynaphthalen-1-yl)-6,8-difluoroquinazolin-4-yl)-3-methylpiperidin-3-ol], the IC50 in assay [1] was determined as 142 nM; in assay [2] it was 59 nM.
The matching figures for `Oc1cc(-c2c(F)cc3c(N4CCC[C@H](O)CC4)nc(OC[C@@]45CCCN4C[C@H](F)C5)nc3c2F)c2c(Cl)cccc2c1` [Ex-35, (4S)-1-(7-(8-chloro-3-hydroxynaphthalen-1-yl)-6,8-difluoro-2-(((2R,7aS)-2-fluorotetrahydro-1H-pyrrolizin-7a(5H)-yl)methoxy)quinazolin-4-yl)azepan-4-ol]: 4840 nM and 1820 nM.
Turning to `C[C@@]1(O)CCCN(c2nc(OCC3(CN4CCC(F)CC4)CC3)nc3c(F)c(-c4cc(O)cc5cccc(Cl)c45)c(F)cc23)C1` [Ex-6, (3R)-1-(7-(8-chloro-3-hydroxynaphthalen-1-yl)-6,8-difluoro-2-((1-((4-fluoropiperidin-1-yl)methyl)cyclopropyl)methoxy)quin-azolin-4-yl)-3-methylpiperidin-3-ol], the concentration for half-maximal inhibition (IC50) in assay [1] came to 3050 nM.
As for `C[C@@H]1C[C@@H](O)CN1c1nc(OC[C@@]23CCCN2C[C@H](F)C3)nc2c(F)c(-c3cc(O)cc4cccc(Cl)c34)c(F)cc12` [Ex-28, (3R,5R)-1-(7-(8-chloro-3-hydroxynaphthalen-1-yl)-6,8-difluoro-2-(((2R,7aS)-2-fluorotetrahydro-1H-pyrrolizin-7a(5H)-yl)methoxy)quinazolin-4-yl)-5-methylpyrrolidin-3-ol], the IC50 is 1220 nM in assay [1] and 2260 nM in assay [2].
As to `C#Cc1cccc2cc(O)cc(-c3c(F)cc4c(N5CCC[C@@](C)(O)C5)nc(OCC5(CN(C)C)CC5)nc4c3F)c12` (single isomer, unassigned) [Ex-11], the IC50 on G13D came out at 2 nM; in assay [1], 132 nM; in assay [3], 2 nM; in assay [4] it was 1 nM.
As for `Cc1cc2[nH]ncc2c(-c2c(F)cc3c(N4CCC[C@@](C)(O)C4)nc(OCC4(CN5CC[C@@H](F)C5)CC4)nc3c2F)c1C` [Ex-39, (3R)-1-(7-(5,6-dimethy1-1H-indazol-4-yl)-6,8-difluoro-2-((1-(((R)-3-fluoropyrrolidin-1-yl)methyl)cyclopropyl)methoxy)quinazolin-4-yl)-3-methylpiperidin-3-ol], the IC50 at G13D stood at 2660 nM; in assay [3], 2290 nM; in assay [4], 2710 nM.
